The data set is described as follows: gradient 5% acetonitrile 3 min, to 50% in 2 min, to 85% in 15 min, held 3 min, 100 µL/min. The conditions noted are these: column: Zorbax Extend-C18 2.1 x 50 mm; eluents: water / acetonitrile, 0.1% formic acid. Put shortly:
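Data were gathered over 3 months by HPLC coupled to a quadrupole time-of-flight mass spectrometer, operated in positive and negative ionization mode. Mixtures of ~100 pure standards ran on a Zorbax Extend-C18 column (2.1 × 50 mm, 1.8 μm) at 100 μL/min, with water and acetonitrile each containing 0.1% formic acid and dead and dwell volumes of 40 μL and 900 μL. Retention time was read from adduct peaks picked by computer and checked manually.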
`O=C(NC1CC1)c1cc2cc(Br)ccc2[nH]1`: the RP-LC retention time came to 817 s.

For the molecule `CN(C)c1cc2c(cc1NC(=O)Cc1ccccc1Cl)n(C)c(=O)c(=O)n2C`, the RP-LC retention time turned out to be 754 s.

`O=S(=O)(c1cccnc1)N1CCN(c2ccc(-c3cccs3)nn2)CC1` registered an RP-LC retention time of 692 s.

Regarding `CSc1ccc(-c2nc3cnccn3c2Nc2ccc(C)cc2Br)cc1`, the RP-LC retention time was determined as 1140 s.

As for `CCNC(=O)C1CCN(S(C)(=O)=O)c2cc(Cl)ccc2O1` (centres undefined), the RP-LC retention time came out at 736 s.

Turning to `Cc1ccc(Sc2nccnc2N2CCCC(C(=O)Nc3ccc(C)c(F)c3)C2)cc1` (centres undefined), the RP-LC retention time amounted to 1260 s.

`COc1cccc(NC(=O)C2CCCN(S(=O)(=O)c3c[nH]c(C(=O)N4CCCC4)c3)C2)c1` (centres undefined) displayed an RP-LC retention time of 765 s.

`CC(C)NC(=O)c1ccc(OCC2CCCN(C(=O)c3ccc(N(C)C)cc3)C2)cc1` (centres undefined) returned an RP-LC retention time of 818 s.

Molecule `CCOC(=O)c1cnc2nc(C)ccc2c1Nc1cc(F)ccc1F` gave an RP-LC retention time of 726 s.

For `CN1C(=O)[C@H]2CN(Cc3ccc(N(C)C)cc3)C[C@H]2C1=O`, the RP-LC retention time was 525 s.

With `O=C(c1csc(S(=O)(=O)N2CCC(C(=O)N3CCCCCC3)CC2)c1)N1CCOCC1`, the RP-LC retention time is 722 s.

With `Cc1[nH]c(C)c(S(=O)(=O)N2CCC(C(=O)NC3CCCCCC3)CC2)c1C(=O)N1CCCC1`, the RP-LC retention time worked out at 702 s.

In the case of `CCOc1cc2c(cc1OCC)C1C(C(=O)N3CCN(C)CC3)c3ccccc3C(=O)N1CC2` (centres undefined), the RP-LC retention time came to 567 s.

On to `O=C(C1CCN(c2ncnc3c2nc2n3CCCCC2)CC1)N1CCN(c2ncccn2)CC1`, for which the RP-LC retention time was 669 s.

In turn, `COC[C@@H]1CN(Cc2ccc(C#N)cc2)C[C@H]1c1ccccn1` gave an RP-LC retention time of 553 s.

`CCc1nc2cc(N3CCC(C(=O)NC(C)C)CC3)cnc2nc1CC` returned an RP-LC retention time of 704 s.

Regarding `CC(=O)N1CCc2cc(N3CC(C(=O)Nc4cc(C)ccc4F)CC3=O)ccc21` (centres undefined), the RP-LC retention time was determined as 743 s.

`O=S(=O)(NCc1ccccc1Cl)c1ccc2c(c1)-c1oncc1CO2` had an RP-LC retention time of 907 s.

Molecule `O=S(=O)(c1cc(F)cc(F)c1)N1CCC(c2noc(-c3ccc(F)cc3)n2)CC1` showed an RP-LC retention time of 1170 s.

In turn, `CCCN1C(=O)Cc2ccccc2C1C(=O)NCc1ccc(Br)cc1` (centres undefined) came in with an RP-LC retention time of 857 s.

Molecule `CC(C)Oc1ccc(CN2CC(N(Cc3ccncc3)S(C)(=O)=O)C2)cc1` had an RP-LC retention time of 571 s.

For `CCn1cnc(S(=O)(=O)N2CCCC(C(=O)Nc3ccc(Cl)cc3C)C2)c1` (centres undefined), the RP-LC retention time worked out at 795 s.

For `O=C(Cc1nnc2c(-c3nc(C4CC4)no3)cccn12)N1CCc2ccccc2C1`, the RP-LC retention time stood at 722 s.

With `O=C(NC1CC1)C1CCN(c2nc3ccc(-c4ccccc4)nc3s2)CC1`, the RP-LC retention time was 865 s.

In the case of `O=C1COc2ccc(-c3csc(NC(=O)c4ccco4)n3)cc2N1`, the RP-LC retention time worked out at 741 s.

`CCOc1ccc(NC(=O)c2c(NC(C)=O)sc3c2CCCC3)cc1` returned an RP-LC retention time of 1090 s.

The molecule `CCN(C(=O)c1cc2c(=O)oc3ccccc3c2n1C)c1ccccc1` came in with an RP-LC retention time of 919 s.

As to `Cc1ccc(C)c(NC(=O)c2c(C)oc3nc(C)nc(N4CCOCC4)c23)c1`, the RP-LC retention time was found to be 803 s.

For `O=C(CC1CCN(C(=O)c2ccc3nc(-c4ccccc4)oc3c2)CC1)NC1CC1`, the RP-LC retention time stood at 730 s.

`Cn1nc(C(=O)N2CCCCC2)c2c1CCN(C(=O)CCC(=O)NCCC1=CCCCC1)C2` displayed an RP-LC retention time of 744 s.

The molecule `COc1ccc(/C=C/c2nc(-c3ccc4oc(C)nc4c3)no2)cc1OC` registered an RP-LC retention time of 995 s.

Consider `COC(=O)c1c(NC2CCCC2)c2cccc(Cl)c2[nH]c1=O`, for which the RP-LC retention time was 830 s.

With `O=C(Nc1ccc2c(c1)N(S(=O)(=O)c1ccccc1)CCC2)c1ccccc1[N+](=O)[O-]`, the RP-LC retention time is 926 s.

Molecule `COc1ccc(C2C(C(=O)N3CC(C)CC(C)C3)CCC(=O)N2c2ccc(OC)cc2)cc1` (centres undefined) registered an RP-LC retention time of 871 s.

As for `Cc1ccc(NC(=O)N2CCN(c3cc(-c4ccncc4)[nH]n3)CC2)c(C)c1`, the RP-LC retention time is 615 s.

Regarding `O=C(N[C@@H]1CN(Cc2ccc3c(c2)CCO3)C[C@H]1CO)C1CCC1`, the RP-LC retention time turned out to be 591 s.

`CC1CCN(S(=O)(=O)c2ccc(-c3nnc(C(=O)NC4CCCC4)o3)cc2)CC1` displayed an RP-LC retention time of 1030 s.

Take `Cc1ccc(CNc2c(-c3ccc(C)cc3)nc3ncccn23)cc1`: the RP-LC retention time was 812 s.

Turning to `COCc1ncc(C)n1CCNC(=O)Nc1ccsc1C(=O)OC`, the RP-LC retention time came to 615 s.

Molecule `CC(C)CN1Cc2ccccc2-n2ccnc2C12CCN(C(=O)c1ccc(F)cc1)CC2` displayed an RP-LC retention time of 739 s.

For the molecule `CC(=O)Nc1ccc2c(c1)nc(CN1CCN(C(=O)c3ccco3)CC1)n2C`, the RP-LC retention time was found to be 576 s.

`COc1cccc(Cn2nc3n(C)c(=O)c4ccc(C(=O)NC5CCCC5)cc4n3c2=O)c1` showed an RP-LC retention time of 851 s.

The molecule `COCC(=O)Nc1cnc(-c2ccccc2)nc1` came in with an RP-LC retention time of 729 s.

In turn, `O=S(=O)(c1ccc2c(c1)CCC2)N1CCC(c2noc(-c3cccc(F)c3)n2)CC1` had an RP-LC retention time of 1260 s.

`CC(Nc1nc(N2CCCC2)nc2ccccc12)c1ccccc1` (centres undefined) registered an RP-LC retention time of 781 s.

Molecule `COc1ccc(C(=O)N2C[C@@H]3C[C@H]2C[C@@H]3NC(=O)c2cccs2)cc1F` showed an RP-LC retention time of 712 s.

Molecule `CC(C)c1cc(C(=O)Nc2ccccc2F)no1` returned an RP-LC retention time of 1020 s.

Molecule `COc1ccc(S(=O)(=O)N2CCCC(C(=O)Nc3cccc(SC)c3)C2)cc1Cl` (centres undefined) showed an RP-LC retention time of 1060 s.

Turning to `O=C(CCc1nc(-c2ccc(N3CCCC3)cc2)no1)Nc1ccc(Br)cc1F`, the RP-LC retention time stood at 1220 s.

`CCOC(=O)C12CC1/C(=N\O)c1ccccc1O2` (centres undefined) gave an RP-LC retention time of 773 s.

Turning to `O=C(Cc1nnc(-c2ccc3ncccc3c2)o1)NCc1ccccc1F`, the RP-LC retention time was determined as 695 s.

`CN(C)c1cccc(C(=O)NC2CCN(c3cc(-c4ccccc4)[nH]n3)C2)c1` (centres undefined): the RP-LC retention time stood at 664 s.

Regarding `CCn1c(C(=O)NCCCN2CCCC(C)C2)cc2c(-c3cccs3)nn(-c3ccccc3)c21` (centres undefined), the RP-LC retention time turned out to be 802 s.

On to `CS(=O)(=O)NCC(c1ccsc1)N1CCc2ccccc2C1` (centres undefined), for which the RP-LC retention time was determined as 563 s.

In turn, `CCOC(=O)CNC(=O)Nc1cc(F)c2nc(N3CCCCC3)ccc2c1` had an RP-LC retention time of 596 s.

`O=C(C1CC(=O)N(c2ccc3c(c2)CCN3C(=O)C2CC2)C1)N1CCC2(CC1)OCCO2` (centres undefined) came in with an RP-LC retention time of 652 s.

Consider `O=C(Cc1c[nH]c2ncccc12)NCc1ccc(Br)cc1`, for which the RP-LC retention time amounted to 666 s.

As to `Cc1nnc(N2CCC(C(=O)N3CCN(c4ccccn4)CC3)CC2)c2nn(-c3ccccc3)c(C)c12`, the RP-LC retention time came out at 569 s.

`COc1ccc(NC(=O)C2CCCN(c3nc4cccnc4s3)C2)cc1` (centres undefined) returned an RP-LC retention time of 797 s.

Regarding `CC(C)Cc1nc(-c2ccccc2)oc1CC(=O)Nc1ccc(F)cc1Cl`, the RP-LC retention time is 1180 s.

For `CCCn1cc(CCNS(=O)(=O)c2ccc(C)c(C)c2)c2cccnc21`, the RP-LC retention time came out at 923 s.

`CCN1CCCn2cc(S(=O)(=O)Nc3ccccc3)cc2C1=O` gave an RP-LC retention time of 666 s.

With `CCCn1cc(C(=O)N2CCC(N3CCCCC3)CC2)c2cccnc21`, the RP-LC retention time was determined as 567 s.

`COCC(=O)N1CCc2c(sc3ncnc(N4CCOCC4)c23)C1` came in with an RP-LC retention time of 623 s.

With `Cc1ccccc1OCC(=O)N1CCCC(COCc2ccccc2)C1` (centres undefined), the RP-LC retention time was 1030 s.

In the case of `O=C(Cn1c(=O)c2cccn2c2ccc(F)cc21)NCCCN1CCCC1`, the RP-LC retention time is 598 s.

In the case of `COc1ccc(CN(Cc2ccccc2)Cc2cc(=O)n3ccc(C)cc3n2)cc1`, the RP-LC retention time was 681 s.

`CCOC(=O)c1c(S(=O)(=O)N2CCC(C(=O)Nc3cccc(Cl)c3)CC2)c(C)n(CC)c1C` showed an RP-LC retention time of 986 s.

`COC(=O)c1cc(S(=O)(=O)N2CCCC2C(=O)Nc2cc(OC)cc(OC)c2)cn1C` (centres undefined) had an RP-LC retention time of 867 s.

On to `COc1cccc(CNC(=O)C2(C)CCCN(C(=O)Nc3cccc(F)c3)C2)c1` (centres undefined), for which the RP-LC retention time was 872 s.

Molecule `Cc1ccc(C)c(N2CCN(Cc3nc(-c4ccc(N5CCOCC5)nc4)no3)CC2)c1` registered an RP-LC retention time of 949 s.

For `CCc1nn2c(CNC(=O)c3ccc(F)c(Cl)c3)c(C)nc2s1`, the RP-LC retention time came out at 710 s.

As to `O=S(=O)(c1ccc2c(c1)CCC2)N1CCC2(CC1)CC(Cc1nc(-c3cnccn3)no1)CCO2` (centres undefined), the RP-LC retention time came out at 1010 s.

`CC(C)CC(=O)N1CCC(COc2ccc(C(=O)NC(C)C)cc2)CC1` registered an RP-LC retention time of 801 s.

Molecule `CCCN1CC(Oc2ccc(-c3noc(-c4cccnc4)n3)cc2)C1` registered an RP-LC retention time of 621 s.

`O=C(Nc1ccc(F)cc1)OC1CCCC(NC(=O)c2ccc(Br)o2)C1` (centres undefined) displayed an RP-LC retention time of 853 s.

For the molecule `CCCN1C(=O)COc2ccc(-c3noc(-c4ccccc4C(F)(F)F)n3)cc21`, the RP-LC retention time came out at 1230 s.

Consider `Cc1nn(-c2ccc(Cl)cc2)c(C)c1S(=O)(=O)N1CCC(C(=O)N2CCOCC2)CC1`, for which the RP-LC retention time stood at 810 s.

For the molecule `COc1ccc(-c2noc(Cn3cnc4c(cnn4-c4ccc(OC)cc4)c3=O)n2)cc1`, the RP-LC retention time is 982 s.

The values are drawn from the METLIN SMRT retention time set (Domingo-Almenara et al. 2019).
